Measurements as given in publication PMC4932538, “Alkanediamide-Linked Bisbenzamidines Are Promising Antiparasitic Agents” (Pharmaceuticals, 2016).
Like-named read-outs stand apart in the source and are kept apart here.

Key:
[1] = system: intracellular amastigote forms of T. cruzi Tulahuen strain C2C4 in rat skeletal myoblasts (L6 cells); assay: In vitro anti-T. cruzi activity; format: cell-based, Trypanosoma cruzi; conditions: for IC50: average of at least two determinations
Experimental: (§5) The anti-T. cruzi activity was determined using intracellular amastigote forms of T. cruzi Tulahuen strain C2C4 in rat skeletal myoblasts (L6 cells) as described previously [24]. The anti-L. donovani activity was determined using the amastigotes of L. donovani strain MHOM-ET-67/L82 as described previously [24]. […] The cytotoxicity assays against rat skeletal myoblast L6-cells were performed as described previously [24].

[2] = system: poly(dA-dT); assay: DNA thermal melting with poly(dA-dT); format: binding; conditions: 1:5 compound to DNA base pair ratio; mean of at least two determinations
Experimental: (§1) In addition to the determination of the potency of the synthesized compounds against different strains of cell lines (Table 1), thermal melting experiments of these compounds were also conducted with poly(dA-dT) and calf thymus DNA (Table S1, supplementary file). […] The weaker binding to DNA (lower ΔTm values) compared to pentamidine might be attributed to the lower lipophilicity and higher PSA properties of these compounds since they would be expected to bind less favorably in the less polar environment of the minor grove of DNA as was reported for the aza-analogues of furamidine. […] Therefore, ability of these compounds to act at other potential targets cannot be ruled out.
(§2) The DNA binding affinity of the tested compounds was determined by measuring the change in mid-point of the thermal denaturation curves for a 1:5 compound to DNA base pair ratio as described previously. Each Tm value reported in Table S1 (supplementary file) represents the mean of at least two experimental determinations.

[3] = system: P. falciparum K1 (chloroquine-resistant); assay: In vitro anti-plasmodial activity, K1; format: cell-based, Plasmodium falciparum
Experimental: as §5

[4] = system: calf thymus DNA; assay: DNA thermal melting with calf thymus DNA; format: binding; conditions: 1:5 compound to DNA base pair ratio; mean of at least two determinations
Experimental: as §1, §2

[5] = system: T. b. rhodesiense KETRi 243 (melarsoprol, pentamidine- and diminazene diaceturate-resistant); assay: In vitro antitrypanosomal activity, T.b. rhodesiense KETRI 243; format: cell-based, Trypanosoma brucei rhodesiense; conditions: Trypanosoma brucei, RHODESIENSE; Table S1; from IC50 of Table 1; read-out: pIC50 T.b. rhod (converted)
Experimental: as §5

[6] = system: rat skeletal myoblast L6-cells; assay: Cytotoxicity against L6 cells; format: cell-based; conditions: cytotoxicity, read-out: IC50 L6 Cells
Experimental: as §5

[7] = system: T. b. brucei Lab 110 EATRO (pentamidine-sensitive); design: method as in PMID 19736009; conditions: strain Lab 110; average of at least two determinations; cited from earlier work
[8] = system: amastigotes of L. donovani strain MHOM-ET-67/L82; assay: In vitro anti-L. donovani activity; format: cell-based, Leishmania donovani; conditions: for IC50: average of at least two determinations
Experimental: as §5

[9] = system: T. b. brucei Lab 110 EATRO (pentamidine-sensitive); assay: In vitro antitrypanosomal activity, T.b. brucei Lab 110 EATRO; format: cell-based, Trypanosoma brucei brucei; conditions: Trypanosoma brucei; Table S1; from IC50 of Table 1; read-out: pIC50 T.b. brucei (converted)
Experimental: (§6) The in vitro assays with the two isolates of T. brucei were conducted according to previously described procedures [14].

[10] = design: method as in PMID 24036514; conditions: incubation in vitro with mouse liver microsomes; cited from earlier work
[11] = system: T. b. rhodesiense KETRi 243 (melarsoprol, pentamidine- and diminazene diaceturate-resistant); design: method as in PMID 19736009; conditions: strain KETRI 243; average of at least two determinations; read-out: IC50 T.b. rhod; cited from earlier work
[12] = system: T.b. rhodesiense KETRI 1992; assay: In vivo trypanocidal activity in mice, KETRI 1992; conditions: for Mean Survival / No. of Mice Cured/Total (%): KETRI 1992
[13] = system: T.b. brucei Lab 110 EATRO; assay: In vivo trypanocidal activity in mice, Lab 110 EATRO; conditions: for curing of infected mice: i.p., 3 days
Experimental: (§3) The compounds were administered via the intraperitoneal route at doses ranging from 1.0 mg/kg/day to 25.0 mg/kg/day for 3 days unless otherwise noted. Pentamidine was used as the reference compound. All three of the tested compounds were effective in curing mice infected with the Lab 110 EATRO or KETRI 2002 strains at several doses.
(§4) The in vivo studies were conducted according to the procedures described previously.

[14] = system: T.b. rhodesiense KETRI 2002; assay: In vivo trypanocidal activity in mice, KETRI 2002; conditions: for curing of infected mice: KETRI 2002, i.p., 3 days; for Mean Survival: KETRI 2002
Experimental: as §3, §4

[15] = system: P. falciparum NF54 (chloroquine-sensitive); assay: In vitro anti-plasmodial activity, NF54; format: cell-based, Plasmodium falciparum; conditions: chloroquine-sensitive strain, read-out: IC50 P. falcip NF54
[16] = system: hemozoin formation; design: method as in PMID 15115412; conditions: micromolar concentrations, ex vivo; cited from earlier work
[17] = system: Pneumocystis; design: method as in PMID 16801410; conditions: 20 mg/kg and 40 mg/kg, cited from earlier work
[18] = system: both strains of T. brucei and P. falciparum; assay: In vitro potency against both strains of T. brucei and P. falciparum; format: cell-based, Trypanosoma brucei; Plasmodium falciparum; conditions: range over T.b. brucei, T.b. rhodesiense, P. falciparum NF54 and K1
Experimental: as §6

[19] = system: T.b. rhodesiense KETRI 2538; assay: In vivo trypanocidal activity in mice, KETRI 2538; conditions: for Mean Survival: KETRI 2538; for curing of infected mice: drug-resistant KETRI 2538, i.p., 3 days
Experimental: as §3, §4

[20] = system: both strains of P. falciparum; assay: In vitro activity and selectivity, both strains of P. falciparum; format: cell-based, Plasmodium falciparum
Experimental: The selectivity index of these compounds for T. brucei (SIT.b) or P. falciparum (SIP.f) are defined as the ratio of the L6 cells IC50 to the T. brucei or P. falciparum IC50 values.
The in vitro assays with the two isolates of T. brucei were conducted according to previously described procedures [14]. […] The cytotoxicity assays against rat skeletal myoblast L6-cells were performed as described previously [24].

[21] = human, in vivo; cited from earlier work
[22] = Trypanosoma cruzi, TULAHUEN, L6
[23] = Plasmodium falciparum, K1, Table S1, from IC50 of Table 1, read-out: pIC50 P. falcip K1 (converted)
[24] = Plasmodium falciparum, K1, chloroquine-resistant strain, read-out: IC50 P. falcip K1
[25] = 10, 15, 25 mg/kg/day i.p. for 3 days (all doses)
[26] = 1.0, 5, 10 mg/kg/day i.p. for 3 days (all doses)

Row | Compound | IC50 [1, 22] [nM] | Thermal Melting ΔTm Poly(dA-dT) [2] [C] | IC50 [3, 23] [nM] | IC50 [3, 24] [nM] | Thermal Melting ΔTm CT-DNA [4] [C] | IC50 [5] [nM] | IC50 ([6]; Rattus norvegicus, L6) [nM] | IC50 [7] [nM] | IC50 ([8]; Leishmania donovani) [nM] | IC50 [9] [nM] | IC50 [11] [nM] | Mean Survival ([12]; 10 mg/kg/day i.p. for 3 days) [days] | Mean Survival ([13]; 1.0 mg/kg/day i.p. for 3 days) [days] | No. of Mice Cured/Total (%) ([13]; 1.0 mg/kg/day i.p. for 3 days) | Mean Survival ([13]; 2.5 mg/kg/day i.p. for 3 days) [days] | No. of Mice Cured/Total (%) ([13]; 2.5 mg/kg/day i.p. for 3 days) | Mean Survival ([13]; 5 mg/kg/day i.p. for 3 days) [days] | Mean Survival ([13]; 10 mg/kg/day i.p. for 3 days) [days] | Mean Survival ([13]; 15 mg/kg/day i.p. for 3 days) [days] | curing of infected mice [13] | further results
1 | NC(=NO)c1ccc(NC(=O)CCCC(=O)Nc2ccc(C(N)=NO)cc2)cc1 [Compound 4] | > 100000 | 0.0 | 3160 | 3160 | 0.7 | 10000 | > 100000 | 7300 | > 100000 | 7290 |  |  |  |  |  |  |  |  |  |  | metabolism of the amidoxime moiety to the amidine function [10]: readily metabolized
2 | N=C(N)c1ccc(NC(=O)CCCC(=O)Nc2ccc(C(=N)N)cc2)cc1 [Compound 5] | > 100000 | 11.4 | 2 | 2 | 5.6 | 95.9 | 69000 | 9 | > 100000 | 8.99 | 96 | 17.5 | 6.0 | 0/3 | 11.3 | 0/3 | 10 | >30 | >30 | highly effective | No. of Mice Cured/Total (%) ([12]; 10 mg/kg/day i.p. for 3 days): 0/3; Mean Survival ([12]; 15 mg/kg/day i.p. for 3 days): 14.5 days; No. of Mice Cured/Total (%) ([12]; 15 mg/kg/day i.p. for 3 days): 0/3; Mean Survival ([12]; 25 mg/kg/day i.p. for 3 days): 25 days; No. of Mice Cured/Total (%) ([12]; 25 mg/kg/day i.p. for 3 days): 0/3; curing of infected mice [14]: highly effective; Mean Survival [14, 25]: >30 days; IC50 ([15]; Plasmodium falciparum, NF54): 2 nM; interference with hemozoin formation [16]: interfere with hemozoin formation; survival versus pentamidine treated mice ([17]; same doses of pentamidine): improved survival curves; reductions in burden [17]: > 1000 fold; IC50 [18]: 1 to 96 nM; Mean Survival [19, 25]: >30 days; curing of infected mice [19]: highly efficacious
3 | N,N′-bis[4-(aminoiminomethyl)phenyl] ethane-1,2-dicarboxamide [Compound 1] |  |  |  |  |  |  |  |  |  |  |  |  |  |  |  |  |  |  |  |  | IC50 [1]: > 100000 nM; activity against T. cruzi ([1]; in vitro): inactive; pIC50 P. falcip K1 ([3]; Table S1, from IC50 of Table 1): 8.523; IC50 ([3]; chloroquine-resistant strain, read-out: IC50 P. falcip K1): 3 nM; IC50 ([20]; range over NF54 and K1, read-out: IC50 against both strains of P. falciparum): 3 to 8 nM; selectivity index for P. falciparum (SIP.f) ([20]; ratio of the L6 cells IC50 to the P. falciparum IC50): > 33,000; IC50 [6]: > 100000 nM; IC50 [15]: 8 nM; IC50 [8]: > 100000 nM; activity against L. donovani ([8]; in vitro): inactive
4 | N=C(N)c1ccc(OCCCCCOc2ccc(C(=N)N)cc2)cc1 [Pentamidine, pentamidine, reference compound] |  | 21.6 | 180 |  | 11.6 | 2 |  |  |  | 2 | 2 | 22.2 |  |  |  |  |  |  |  |  | Mean Survival ([12]; 1 mg/kg/day i.p. for 3 days): 12.6 days; Mean Survival ([12]; 5 mg/kg/day i.p. for 3 days): 17.0 days; curing of infected mice ([12]; drug-resistant KETRI 1992, i.p., 3 days): ineffective; Mean Survival ([13]; 1.0, 2.5, 5, 10 mg/kg/day i.p. for 3 days (all doses)): >30 days; Mean Survival [14, 26]: >30 days; Mean Survival [19, 26]: >30 days
5 | N=C(N)c1ccc(NC(=O)CCCCC(=O)Nc2ccc(C(=N)N)cc2)cc1 [Compound 6] | > 100000 | 14.4 | 18 | 18 | 8.7 | 2 | > 100000 | 3 | > 100000 | 3 | 2 |  | 6.7 | 0/3 | 10.0 | 0/3 | >30 | >30 | >30 | highly effective | curing of infected mice [14]: highly effective; Mean Survival [14, 25]: >30 days; IC50 ([15]; Plasmodium falciparum, NF54): 4 nM; IC50 [18]: 1 to 96 nM; Mean Survival ([19]; 5, 10, 15 mg/kg/day i.p. for 3 days (all doses)): >30 days; curing of infected mice [19]: highly efficacious
6 | CONC(=N)c1ccc(-c2ccc(-c3ccc(C(=N)NOC)cc3)o2)cc1.O=C(O)/C=C\C(=O)O [parafuramidine maleate] |  |  |  |  |  |  |  |  |  |  |  |  |  |  |  |  |  |  |  |  | toxicity that halted development [21]: nephrotoxicity
